Assay results reported in patent publication US11000033B2, “Ketone or oxime compound, and herbicide” (NISSAN CHEMICAL CORPORATION, priority 2014, dated 2021).

Columns and labels:
wheat = assay: Test Example 5: effect on crop by foliage application, plastic box (symbol e); assay type: in vivo; details: 320 g/ha, 3 weeks after application
Method in brief: (§1)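 Diluvial soil, sterilized and boxed (21 × 13 × 7 cm), received spot-sown seed covered by about 1.5 cm soil; plants were then greenhouse-grown at 25–30° C.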

corn = assay: Test Example 4: effect on crop by soil treatment (symbol c); assay type: in vivo; details: application herbicide amount 320 g/ha
Method in brief: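 Diluvial soil (sterilized) in boxes; seeds placed spot-wise alongside weed species; ~1.5 cm covering soil. Greenhouse, 25–30° C.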

rice plant = assay: Test Example 5: effect on crop by foliage application, plastic box (symbol b); assay type: in vivo; details: 320 g/ha, 3 weeks after application
Method in brief: as §1

soybean = assay: Test Example 4: effect on crop by soil treatment (symbol d); assay type: in vivo; details: application herbicide amount 320 g/ha
Method in brief: (§2)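 Soil-treatment setup: crop and weed seeds were spot-sown into sterilized diluvial soil, then buried beneath approximately 1.5 cm of it, and the boxes were housed in a 25–30° C. greenhouse.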

rice = assay: Test Example 4: effect on crop by soil treatment (symbol b); assay type: in vivo; details: application herbicide amount 320 g/ha
Method in brief: as §2

Monochoria vaginalis = assay: Test Example 2: herbicidal activity, application during weed generation in submerged conditions (symbol C); assay type: in vivo; details: Table 23; application herbicide amount 320 g/ha; grade 0-5 by criteria of Test Example 1
Method in brief: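 Flooded-soil post-emergence test: emulsion of compound, water-diluted to target rate, applied to paddy water surface at 1–2 leaf stage of mixed-sown weeds (alluvial soil, 4 cm water, 25–30° C. greenhouse); visual rating 3 weeks after application.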

Amaranthus retroflexus = assay: Test Example 4: herbicidal effect by soil treatment (symbol N); assay type: in vivo; details: application herbicide amount 320 g/ha
Method in brief: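 Seeds were sown in sterilized diluvial soil, covered with about 1.5 cm of soil, and the soil surface was sprayed with a water-diluted emulsion of the compound at a predetermined rate. Plants grew in a greenhouse at 25° C. to 30° C.; effects were scored visually 3 weeks after application.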

Row | SMILES | e: wheat, effect on crop (criteria of Test Example 1) (wheat) | Effect on crop grade, c: corn (corn) | b: directly sowed rice plant, effect on crop (criteria of Test Example 1) (rice plant) | Effect on crop grade, d: soybean (soybean) | Effect on crop grade, b: directly sowed rice plant (rice) | melting point | Herbicidal effect grade, C: Monochoria vaginalis (Monochoria vaginalis) | Herbicidal effect grade, N: Amaranthus retroflexus (Amaranthus retroflexus) | e: wheat, effect on crop grade (wheat) | N: Amaranthus retroflexus, herbicidal effect grade (Amaranthus retroflexus) | c: corn, effect on crop grade (corn) | b: directly sowed rice plant, effect on crop grade (rice plant) | d: soybean, effect on crop grade (soybean) | b: directly sowed rice plant, effect on crop grade (rice)
1 | CON=C(C)CC1CC(O)=C(c2c(F)cc(-c3ccccc3)cc2OC)C1=O (stereo not shown) [6-107] | 5 (Herbicidal ratio of 90% or more (almost completely withered)) | 0 (Herbicidal ratio of 5% or lower (almost no effect)) | 5 (Herbicidal ratio of 90% or more (almost completely withered)) | 0 (Herbicidal ratio of 5% or lower (almost no effect)) | 5 (Herbicidal ratio of 90% or more (almost completely withered)) | 175 to 177 °C | 5 (Herbicidal ratio of 90% or more (almost completely withered)) | – | – | – | – | – | – | –
2 | CON=C(C)CC1CC(O)=C(c2c(F)cc(Br)cc2OC)C1=O (stereo not shown) [6-096] | 3 (Herbicidal ratio of 40% or higher and lower than 70%) | 3 (Herbicidal ratio of 40% or higher and lower than 70%) | – | 0 (Herbicidal ratio of 5% or lower (almost no effect)) | 5 (Herbicidal ratio of 90% or more (almost completely withered)) | 157 to 159 °C | 0 (Herbicidal ratio of 5% or lower (almost no effect)) | 0 (Herbicidal ratio of 5% or lower (almost no effect)) | – | – | – | – | – | –
3 | CON=C(C)CC1CC(O)=C(c2c(C)cc(C3CC3)cc2C)C1=O (stereo not shown) [6-050] | – | – | – | – | – | 170 to 178 °C | 0 (Herbicidal ratio of 5% or lower (almost no effect)) | – | 0 (Herbicidal ratio of 5% or lower (almost no effect)) | 0 (Herbicidal ratio of 5% or lower (almost no effect)) | 1 (Herbicidal ratio of 5% or higher and lower than 20%) | 5 (Herbicidal ratio of 90% or more (almost completely withered)) | 0 (Herbicidal ratio of 5% or lower (almost no effect)) | 5 (Herbicidal ratio of 90% or more (almost completely withered))
4 | CON=C(C)CC1CC(O)=C(c2c(C)cc(OC)cc2C)C1=O (stereo not shown) [6-055] | 3 (Herbicidal ratio of 40% or higher and lower than 70%) | – | 5 (Herbicidal ratio of 90% or more (almost completely withered)) | – | – | 141 to 143 °C | 0 (Herbicidal ratio of 5% or lower (almost no effect)) | – | – | 0 (Herbicidal ratio of 5% or lower (almost no effect)) | 5 (Herbicidal ratio of 90% or more (almost completely withered)) | – | 0 (Herbicidal ratio of 5% or lower (almost no effect)) | 5 (Herbicidal ratio of 90% or more (almost completely withered))
5 | CON=C(C)CC1CC(O)=C(c2c(C)cc(-c3ccccc3)cc2OC)C1=O (stereo not shown) [6-099] | 5 (Herbicidal ratio of 90% or more (almost completely withered)) | 5 (Herbicidal ratio of 90% or more (almost completely withered)) | 5 (Herbicidal ratio of 90% or more (almost completely withered)) | 0 (Herbicidal ratio of 5% or lower (almost no effect)) | 5 (Herbicidal ratio of 90% or more (almost completely withered)) | 175 to 177 °C | 5 (Herbicidal ratio of 90% or more (almost completely withered)) | 5 (Herbicidal ratio of 90% or more (almost completely withered)) | – | – | – | – | – | –
6 | CON=C(C)CC1CC(O)=C(c2c(C)cccc2C)C1=O (stereo not shown) [6-112] | 4 (Herbicidal ratio of 70% or higher and lower than 90%) | 1 (Herbicidal ratio of 5% or higher and lower than 20%) | 5 (Herbicidal ratio of 90% or more (almost completely withered)) | 0 (Herbicidal ratio of 5% or lower (almost no effect)) | 5 (Herbicidal ratio of 90% or more (almost completely withered)) | 167 to 170 °C | 0 (Herbicidal ratio of 5% or lower (almost no effect)) | 1 (Herbicidal ratio of 5% or higher and lower than 20%) | – | – | – | – | – | –
7 | CON=C(C)CC1CC(O)=C(c2c(OC)cc(C)cc2OC)C1=O (stereo not shown) [6-103] | 5 (Herbicidal ratio of 90% or more (almost completely withered)) | 5 (Herbicidal ratio of 90% or more (almost completely withered)) | 5 (Herbicidal ratio of 90% or more (almost completely withered)) | 0 (Herbicidal ratio of 5% or lower (almost no effect)) | 5 (Herbicidal ratio of 90% or more (almost completely withered)) | 171 to 175 °C | 0 (Herbicidal ratio of 5% or lower (almost no effect)) | 0 (Herbicidal ratio of 5% or lower (almost no effect)) | – | – | – | – | – | –
8 | CON=C(C)CC1CC(OC(=O)N2CCOCC2)=C(c2c(C)cc(-c3ccc(F)cc3)cc2C)C1=O (mixture of isomers) [6-059] | 5 (Herbicidal ratio of 90% or more (almost completely withered)) | – | 5 (Herbicidal ratio of 90% or more (almost completely withered)) | – | – | – | 4 (Herbicidal ratio of 70% or higher and lower than 90%) | – | – | 0 (Herbicidal ratio of 5% or lower (almost no effect)) | 0 (Herbicidal ratio of 5% or lower (almost no effect)) | – | 0 (Herbicidal ratio of 5% or lower (almost no effect)) | 0 (Herbicidal ratio of 5% or lower (almost no effect))
9 | CON=C(C)CC1CC(O)=C(c2c(C)cc(Br)cc2OC)C1=O (stereo not shown) [6-076, 2-(4-bromo-2-methoxy-6-methylphenyl)-3-hydroxy-5-{2-(methoxyimino)propyl}cyclopent-2-enone] | 5 (Herbicidal ratio of 90% or more (almost completely withered)) | – | 5 (Herbicidal ratio of 90% or more (almost completely withered)) | – | – | 150 to 153 °C | 1 (Herbicidal ratio of 5% or higher and lower than 20%) | – | – | 1 (Herbicidal ratio of 5% or higher and lower than 20%) | 5 (Herbicidal ratio of 90% or more (almost completely withered)) | – | 0 (Herbicidal ratio of 5% or lower (almost no effect)) | 5 (Herbicidal ratio of 90% or more (almost completely withered))
10 | CC(=O)CC1CC(O)=C(c2c(C)cc(-c3ccccc3)cc2C)C1=O (stereo not shown) [7-004] | 0 (Herbicidal ratio of 5% or lower (almost no effect)) | 4 (Herbicidal ratio of 70% or higher and lower than 90%) | 5 (Herbicidal ratio of 90% or more (almost completely withered)) | 0 (Herbicidal ratio of 5% or lower (almost no effect)) | 5 (Herbicidal ratio of 90% or more (almost completely withered)) | – | 0 (Herbicidal ratio of 5% or lower (almost no effect)) | 2 (Herbicidal ratio of 20% or higher and lower than 40%) | – | – | – | – | – | –
